{
  "source": "paper PMC8692993",
  "about": "“PPARα and PPARγ activation is associated with pleural mesothelioma invasion but therapeutic inhibition is ineffective” (iScience, 2021)",
  "key": {"[1]": {"test": "Protein binding by rapid equilibrium dialysis, mouse plasma", "type": "in vitro ADME", "conditions": "corrected from 10% diluted plasma, mean ± SD, n=3", "method": "Protein binding was determined via rapid equilibrium dialysis (RED) with incorporation of a pre-saturation step ([Charman et al., 2020]). The pre-incubation process involved RED system being exposed to fresh aqueous solutions of GW6471 (400 nM) for three periods (including one overnight). For the protein binding determination, GW6471 was spiked into the diluted mouse plasma (10% (v/v); in PBS) or DMEM/F-12 media containing 5% dextran-coated charcoal-stripped FCS (at 2000 nM) and dialysed against protein-free PBS (for plasma) or base media (DMEM/F-12) containing GW6471 at 40 nM for 24 h at 37°C under ambient atmosphere on a plate shaker. Concentrations of GW6471 in dialysate and donor samples collected at the end of the dialysis period were determined via LC–MS.\nCompound binding was assessed on the basis of the measured concentrations in dialysate and donor samples at the end of the dialysis period.\nBased on the post-dialysis measured concentrations in donor (Ctotal_post_dialysis) and dialysate (Cunbound) for each RED unit, the unbound fraction of compound in assay matrix (fu_diluted) was calculated according to Equation 1 below:(Equation 1) fu=Cunbound/Ctotal_post−dialysis\nFor media, the value for fu calculated according to Equation 1 above was used without further correction. […]"}, "PPARα": {"target": "T1, PPARα (Homo sapiens, UniProt Q07869)", "T1 sequence (Q07869 239-466 limits assumed)": "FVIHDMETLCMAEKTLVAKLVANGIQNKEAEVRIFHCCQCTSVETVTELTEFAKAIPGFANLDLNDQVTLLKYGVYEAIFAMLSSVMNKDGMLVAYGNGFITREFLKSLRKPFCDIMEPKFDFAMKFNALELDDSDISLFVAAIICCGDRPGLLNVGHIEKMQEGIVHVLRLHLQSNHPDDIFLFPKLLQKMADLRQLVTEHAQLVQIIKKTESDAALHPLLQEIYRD", "test": "HG5LN reporter cell assay, PPARα-mediated transcription", "type": "cell-based", "set-up": "expressed in transfected cells; host or cells: HG5LN (HeLa-derived, GAL4RE-luciferase)", "from_the_text": "Nuclear receptors, including PPARα and γ, are ligand-inducible transcription factors that form heterodimers with retinoid X receptors and bind to specific DNA sites located in the enhancer/promoter region of target genes, releasing co-repressors and/or recruiting co-activators ([Wang, 2010]). We therefore assessed the functional consequences of the ligands on PPARα and γ-mediated transcriptional activation in reporter cell lines. These cell lines were generated as previously reported by a two-step transfection procedure ([Seimandi et al., 2005]). First, a stable cell line, HG5LN, expressing the reporter gene (GAL4RE-luciferase) was developed from the HeLa cell line. These cells were then transfected with a plasmid expressing the C-terminal ligand-binding domain of PPARα or γ fused to GAL4 DNA-binding domain. The parental HG5LN cells were used as a control to test non-specific modulation of luciferase expression by the small molecules investigated (Figure S4A). The HG5LN PPAR reporter cells therefore allow comparison of the functional activity at, and selectivity of different ligands for, PPARα and γ. […] As expected ([Abu Aboud et al., 2015]), GW6471 potently antagonized PPARα (Figure 4E and Table 1).\nA transfected […] cell line HG5LN was used ([Balaguer et al., 2001]). These cells were cultured in Dubecco's modified Eagle's medium (DMEM-F12 Thermo Fisher Scientific) with phenol red and supplemented with 5% foetal calf serum, incubated at 37°C in a 5% CO2/95% air-humidified atmosphere. Luciferase assays were performed in DMEM-F12 (Thermo Fisher Scientific) without phenol red and supplemented with 5% dextran-coated charcoal-stripped FCS (test culture medium), puromycin (Thermo Fisher Scientific) 0.5 μg/mL and geneticin (Thermo Fisher Scientific) 1 mg/mL. Cells were seeded at a density of 5 x 10^4 cells/well and incubated for 8 h at 37°C in a 96-well plate white opaque tissue culture plates (Becton-Dickinson). Tested compounds were added in serial dilutions and incubated for 16 h at 37°C. After incubation, the medium containing the effectors was carefully removed and replaced by culture medium containing 3 x 10^−4 mol/L luciferin (Sigma Chemicals). After 5 min incubation at room temperature, the 96-well plate was then read with a Microbeta Wallac luminometer and the luminescence was measured in the living cells for 2 s. All experiments were performed in quadruplicate."}},
  "data": [
    {"smiles": "CCC(=O)NC[C@H](Cc1ccc(OCCc2nc(-c3ccccc3)oc2C)cc1)N/C(C)=C\\C(=O)c1ccc(C(F)(F)F)cc1", "note": "[GW6471]", "values": [
      {"measurement": "Fraction unbound (fu)", "setting": "[1]", "result": "0.00059 ± 0.00005"},
      {"measurement": "Functionality, Type", "setting": "PPARα", "result": "antagonist"},
      {"measurement": "IC50", "setting": "PPARα; inhibition of agonism by 10 nM GW7647, 16 h incubation, mean of 3 experiments ± SEM", "result": "254 ± 96", "unit": "nM"}
    ]}
  ]
}
